Measurements from patent US6319910A, “Method for inhibiting cyclooxygenase-2 and tumor necrosis factor alpha” (Hospital for Joint Diseases, priority 1998, dated 2001).
“Also recorded” adds a separate entry of the source.

Key:
[1] = words; cited from earlier work
OA-affected cartilage = assay: Spontaneous PGE2 release by OA-affected cartilage (ex vivo organ culture); format: cell-based, human
Procedure: Human osteoarthritis affected cartilage spontaneously release nitric oxide (NO) and PGE2 in the medium as previously reported (Amin et al, 1995a; 1997a). The OA-organ cultures were set up as described (Amin et al, 1995a; 1997a). Briefly, total knee articular cartilage from tibial plateau and femoral condyle were harvested from OA-affected patients. The cartilage was mixed and cut into 3-mm discs and 4-6 discs were placed in triplicate or quadruplicate, in a 24-well plate in 2.0 ml of Ham's F-12 medium supplemented with 0.2% endotoxin free human albumin, 10 mM Hepes pH 7.4 and antibiotics in the presence of various modulators, as previously described (Amin et al, 1995a; 1997a). CMT-8 was used at pharmacologically relevant concentrations in DMSO (<0.01% final concentration) as carrier. An equivalent amount of DMSO was also added in the control cultures.
The p value between control and CMT-8 treated values for PGE2≤0.1 (insignificant) whereas the p values between NMMA treated cartilage and CMT-8 treated cartilage was ≤0.001 (significant). The data are represented as mean±SD as examined by T test when n=3. Data represent±SD value as determined by Student's t test n=4. The P values described are compared with control unstimulated OA-cartilage. The data represents one of the two similar experiments. P values for PGE2 and Nitrite=^a≤0.5; ^b≤0.1; ^c≤0.05; ^d≤0.01.

bovine chondrocytes = assay: PGE2 production in LPS stimulated bovine chondrocytes (radioimmunoassay); format: cell-based; details: FIGS. 3 and 9, words
Procedure: After 48 hours the medium was changed and the cells were incubated with CMT-3 or N-monomethyl arginine (NMMA) for 2 hours before stimulating them with 100 μg/ml LPS. DMSO was used as a carrier for the modulators and the DMSO concentration was maintained (<0.01% v/v) in the cultures. Equivalent amounts of DMSO was also added to the control cultures. The levels of COX-2 dependent PGE2 release was assayed after 72 hrs by radioimmunoassay. […] The data represents mean±SD which was evaluated by T test where n=3.

COX-2 = assay: Expression/modification (size) of COX-2 in LPS-stimulated murine macrophages, Western blot; format: cell-based; details: LPS 100 ng/ml
Procedure: RAW 263.7 cells were grown as previously described (Amin et al, 1995b). Murine macrophages stimulated with 100 ng/ml LPS were incubated with CMT-3 or tunicamycin (a glycosylation inhibitor). […] Nitrite and PGE2 were estimated as previously described (Amin et al, 1995b). It is quite possible that CMT-3 may inhibit COX-2 and PGE2 production by post translational modification of COX-2 which may be similar to tunicamycin inhibition. The data represents the mean±SD evaluated by T test (n=3).
Murine macrophage cells were cultivated as previously described (Amin et al, 1995b). […] cells were stimulated with 100 ng/ml of LPS in the presence of CMT-3, CMT-5 and glycosylation inhibitor, tunicamycin. The cells were grown for 16 hr and harvested. The cell free extracts were prepared as previously described (Amin et al, 1995b). In FIG. 4A, 50 μg of protein was loaded in each well and run on SDS-PAGE gels and blotted onto Western blots using a specific anti COX-2 antibody as previously described (Amin et al, 1997a). The positive control is a standard COX-2. […] The size is approximately 2000 D smaller (CMT-3 form) than the native COX-2 shown as a standard. […] These experiments indicate that CMT-3 induces modification of the COX-2 protein. The SDS PAGE analysis and Western blotting of COX-2 was carried out as described above.

NOS = details: previously shown; words; cited from earlier work
TNFα = TNFα release in the medium by HEK 293 cells permanently transfected with human proTNFα (ELISA); format: cell-based; details: words
Procedure: HEK 293 cells were transfected with the proTNFα cDNA (wild) to prepare a stable cell line. […] A mutant form of proTNFα cDNA which could not be cleaved by the endogenous TNFα convertase (TACE) to release soluble TNFα was also transfected in separate human HEK 293 cells. The soluble TNFα was estimated by ELISA from the wild type and mutant transfected cells from the medium (FIG. 6).
HEK 293 cells were grown as previously described by American Type Culture Collection (ATCC). […] The HEK 293 cells were incubated with CMT-3 to examine the effects of CMT-3 on TNFα release in the medium.
HEK 293 cells were grown under the conditions previously described by ATCC. Various compounds, including CMT-3 and doxycycline/minocyclines were incubated with proTNFα transfected HEK 293 cells releasing TNFα in the medium at 16 hours. […] Soluble TNFα was estimated by ELISA from the medium.

For NC(=O)C1=C(O)C2(O)C(=O)C3=C(O)c4c(O)cccc4CC3CC2CC1=O (stereo not shown) [CMT-3, 6-demethyl-6-deoxy-4-dedimethylaminotetracycline], the Antimicrobial activity [1] is given as “no antimicrobial activity”, the inhibition at 5 µg/mL (OA-affected cartilage; Homo sapiens, Table 2, 5 μg/ml) is given as 60% and the PGE2 (OA-affected cartilage; Table 2, 5 μg/ml) is given as 88.0 ± 21.4 ng/mL. For the same molecule, the “Effect on PGE2 production” value (OA-affected cartilage; human OA-affected cartilage, words) was “significantly inhibit; also recorded: inhibits COX-2 expression and PGE2 production”, the “Effect on PGE2 production” value (bovine chondrocytes; LPS 100 μg/ml, 72 hrs) was “inhibit NO and PGE2 production” and the “Effect on L-NMMA induced PGE2 up-regulation” value (bovine chondrocytes) was “inhibits the L-NMMA induced PGE2 up-regulation”. The “Effect on COX-2 expression” value (COX-2; FIG. 2, words) was “inhibit”, the “Decrease in size of COX-2 versus native COX-2” value (COX-2; FIG. 4A, 16 hr, Western blot) was “approximately 2000 D” and the “Effect on size of COX-2” value (COX-2; FIG. 4A, 16 hr, Western blot, words) was “decrease in the size of COX-2”. For the same molecule, the NOS activity (NOS) was “inhibit NOS activity”, the “Effect on TNFα release in the medium” value (TNFα; FIG. 7) was “inhibits TNFα release in the medium in a dose dependent manner” and the “Effect on spontaneous TNFα release” value (TNFα; FIG. 8, 16 hours) was “inhibit the spontaneous TNFα release”. For the same molecule, the “Inhibition of TNFα (summary statement)” value (TNFα; HEK 293 cells transfected with proTNFα cDNA, low levels) was “inhibiting TNFα”.
